From patent US20250197406A1, “INDAZOLES AS HEMATOPOIETIC PROGENITOR KINASE 1 (HPK1) INHIBITORS AND METHODS FOR USING SAME” (1ST Biotherapeutics, Inc., priority 2022, published 2025)

Target: recombinant human HPK1 (Homo sapiens (Human), UniProt Q92918)
Test: HPK1 kinase assay (Promega ADP-Glo kinase assay)
Assay type: biochemical
Settings: In vitro activity against HPK1, 5 ng HPK1, MBP substrate, ATP 25 μM, 30° C. 40 minutes
Method: HPK1 kinase activity was measured by Promega's ADP-Glo™ kinase assay. In this assay, 5 ng of recombinant human HPK1 (signalchem) is incubated with 5 μL of compounds (0.5% DMSO), 5 μL of MBP (0.5 μg/μl) and 5 μL of ATP (25 μM) in buffer (40 mM Tris, 7.5; 20 mM MgCl2; 0.1 mg/ml BSA; 50 μM DTT.). The assay was started by incubating the reaction mixture in a 96-well plate at 30° C. for 40 minutes. After the incubation, 25 μL ADP-Glo reagent was added and the reaction was incubated at room temperature for 40-min to stop the reaction and degrade residual ATP. The ADP product was then converted to ATP by adding 50 μL per well of detection reagent. Luminescence was detected after 30-min room temperature incubation with the Molecular device I3X plate reader. The IC50 values were calculated from a series of percent inhibition values determined at a range of inhibitor concentration using software routines as implemented in the GraphPad Prism 7 software and SigmaPlot13.0.

Chain of recombinant human HPK1 (Q92918 whole entry): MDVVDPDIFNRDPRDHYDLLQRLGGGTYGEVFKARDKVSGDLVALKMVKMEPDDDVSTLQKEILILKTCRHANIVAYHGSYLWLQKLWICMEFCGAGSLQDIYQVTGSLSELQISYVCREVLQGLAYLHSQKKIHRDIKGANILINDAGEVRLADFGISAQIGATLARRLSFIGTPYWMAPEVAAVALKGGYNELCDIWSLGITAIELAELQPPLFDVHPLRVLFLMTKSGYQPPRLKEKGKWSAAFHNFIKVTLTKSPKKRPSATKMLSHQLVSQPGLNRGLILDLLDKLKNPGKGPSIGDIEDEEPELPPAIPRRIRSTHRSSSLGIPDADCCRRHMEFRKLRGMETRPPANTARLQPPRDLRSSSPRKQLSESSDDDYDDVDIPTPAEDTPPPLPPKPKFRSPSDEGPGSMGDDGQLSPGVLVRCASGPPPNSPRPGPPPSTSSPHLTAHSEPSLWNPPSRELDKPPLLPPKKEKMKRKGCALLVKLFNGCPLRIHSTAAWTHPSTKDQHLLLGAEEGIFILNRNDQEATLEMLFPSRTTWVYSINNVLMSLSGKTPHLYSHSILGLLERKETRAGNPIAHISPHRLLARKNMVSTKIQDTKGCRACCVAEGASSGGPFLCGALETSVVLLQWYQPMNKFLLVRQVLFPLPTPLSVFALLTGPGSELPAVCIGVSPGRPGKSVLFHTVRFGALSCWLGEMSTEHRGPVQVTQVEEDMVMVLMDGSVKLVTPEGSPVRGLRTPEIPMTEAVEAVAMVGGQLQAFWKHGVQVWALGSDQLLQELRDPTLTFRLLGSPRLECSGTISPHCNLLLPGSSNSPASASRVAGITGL

Row | IC50 [nM] | Compound
1 | < 100 | CC(C)Nc1c(F)c(Cl)c(-c2cn3cc(NC(=O)[C@@H]4C[C@@H]4CO)nc3cn2)c2cn[nH]c12 [Example 38, (IR,2S)-N-(6-(5-chloro-6-fluoro-7-(isopropylamino)-1H-indazol-4-yl)imidazo[1,2-a]pyrazin-2-yl)-2-(hydroxymethyl)cyclopropane-1-carboxamide]
2 | < 100 | CC(C)Nc1c(F)c(Cl)c(-c2cn3cc(NC(=O)[C@@H]4C[C@@H]4C(N)=O)nc3cn2)c2cn[nH]c12 [Example 39, (1R,2S)-N1-(6-(5-chloro-6-fluoro-7-(isopropylamino)-1H-indazol-4-yl)imidazo[1,2-a]pyrazin-2-yl)cyclopropane-1,2-dicarboxamide]
3 | 101 to 500 | CC(C)Nc1c(F)c(CO)c(-c2cn3cc(NC(=O)[C@@H]4C[C@@H]4F)nc3cn2)c2cn[nH]c12 [Example 40, (1S,2S)-2-fluoro-N-(6-(6-fluoro-5-(hydroxymethyl)-7-(isopropylamino)-1H-indazol-4-yl)imidazo[1,2-a]pyrazin-2-yl)cyclopropane-1-carboxamide]
4 | < 100 | NC(c1c(F)c(C(F)F)c(-c2cn3cc(NC(=O)[C@@H]4C[C@@H]4F)nc3cn2)c2cn[nH]c12)C1CC1 (stereo partly drawn) [Example 41, (1S,2S)-N-(6-(7-(amino(cyclopropyl)methyl)-5-(difluoromethyl)-6-fluoro-1H-indazol-4-yl)imidazo[1,2-a]pyrazin-2-yl)-2-fluorocyclopropane-1-carboxamide]
5 | < 100 | CC(=O)NC(c1c(F)c(C)c(-c2cn3cc(NC(=O)[C@@H]4C[C@@H]4F)nc3cn2)c2cn[nH]c12)C1CC1 (stereo partly drawn) [Example 42, (1S,2S)-N-(6-(7-(acetamido(cyclopropyl)methyl)-6-fluoro-5-methyl-1H-indazol-4-yl)imidazo[1,2-a]pyrazin-2-yl)-2-fluorocyclopropane-1-carboxamide]
6 | < 100 | NC(c1c(F)c(C(F)(F)F)c(-c2cn3cc(NC(=O)[C@@H]4C[C@@H]4F)nc3cn2)c2cn[nH]c12)C1CC1 (stereo partly drawn) [Example 44, (1S,2S)-N-(6-(7-(amino(cyclopropyl)methyl)-6-fluoro-5-(trifluoromethyl)-1H-indazol-4-yl)imidazo[1,2-a]pyrazin-2-yl)-2-fluorocyclopropane-1-carboxamide]
7 | 501 to 1000 | CC(N)c1c(F)c(C(F)(F)F)c(-c2cn3cc(NC(=O)[C@@H]4C[C@@H]4F)nc3cn2)c2cn[nH]c12 (stereo partly drawn) [Example 45, (1S,2S)-N-(6-(7-(1-aminoethyl)-6-fluoro-5-(trifluoromethyl)-1H-indazol-4-yl)imidazo[1,2-a]pyrazin-2-yl)-2-fluorocyclopropane-1-carboxamide]
8 | < 100 | CC(C)Nc1c(F)c(Cl)c(-c2cn3cc(NC(=O)C4CC4)nc3cn2)c2cn[nH]c12 [Example 46, N-(6-(5-chloro-6-fluoro-7-(isopropylamino)-1H-indazol-4-yl)imidazo[1,2-a]pyrazin-2-yl)cyclopropanecarboxamide]
9 | 501 to 1000 | COC(=O)NC1(C(=O)Nc2cn3cc(-c4c(Cl)c(F)c(NC(C)C)c5[nH]ncc45)ncc3n2)CC1 [Example 47, methyl (1-((6-(5-chloro-6-fluoro-7-(isopropylamino)-1H-indazol-4-yl)imidazo[1,2-a]pyrazin-2-yl)carbamoyl)cyclopropyl)carbamate]
10 | < 100 | O=C(Nc1cn2cc(-c3c(C(F)F)c(F)c(C(C4CC4)N4C(=O)c5ccccc5C4=O)c4[nH]ncc34)ncc2n1)[C@@H]1C[C@@H]1F (stereo partly drawn) [Example 48, (1S,2S)-N-(6-(7-(cyclopropyl(1,3-dioxoisoindolin-2-yl)methyl)-5-(difluoromethyl)-6-fluoro-1H-indazol-4-yl)imidazo[1,2-a]pyrazin-2-yl)-2-fluorocyclopropane-1-carboxamide]
11 | < 100 | CC(O)c1c(F)c(C(F)F)c(-c2cn3cc(NC(=O)[C@@H]4C[C@@H]4F)nc3cn2)c2cn[nH]c12 (stereo partly drawn) [Example 49, (1S,2S)-N-(6-(5-(difluoromethyl)-6-fluoro-7-(1-hydroxyethyl)-1H-indazol-4-yl)imidazo[1,2-a]pyrazin-2-yl)-2-fluorocyclopropane-1-carboxamide]
12 | < 100 | CC(c1c(F)c(C(F)F)c(-c2cn3cc(NC(=O)[C@@H]4C[C@@H]4F)nc3cn2)c2cn[nH]c12)N1C(=O)c2ccccc2C1=O (stereo partly drawn) [Example 50, (1S,2S)-N-(6-(5-(difluoromethyl)-7-(1-(1,3-dioxoisoindolin-2-yl)ethyl)-6-fluoro-1H-indazol-4-yl)imidazo[1,2-a]pyrazin-2-yl)-2-fluorocyclopropane-1-carboxamide]
13 | < 100 | CC(C)Nc1c(F)c(Cl)c(-c2cn3cc(NC(=O)[C@@H]4C[C@@H]4C#N)nc3cn2)c2cn[nH]c12 [Example 51, (1R,2S)-N-(6-(5-chloro-6-fluoro-7-(isopropylamino)-1H-indazol-4-yl)imidazo[1,2-a]pyrazin-2-yl)-2-cyanocyclopropane-1-carboxamide]
14 | < 100 | CC(=O)NC(C)c1c(F)c(C(F)F)c(-c2cn3cc(NC(=O)[C@@H]4C[C@@H]4F)nc3cn2)c2cn[nH]c12 (stereo partly drawn) [Example 53, (1S,2S)-N-(6-(7-(1-acetamidoethyl)-5-(difluoromethyl)-6-fluoro-1H-indazol-4-yl)imidazo[1,2-a]pyrazin-2-yl)-2-fluorocyclopropane-1-carboxamide]

Second part, the molecule before the results:

Row | Compound | IC50 [nM]
15 | CCN(CC)C(=O)[C@H]1C[C@H]1C(=O)Nc1cn2cc(-c3c(Cl)c(F)c(NC(C)C)c4[nH]ncc34)ncc2n1 [Example 26, (1R,2S)-N1-(6-(5-chloro-6-fluoro-7-(isopropylamino)-1H-indazol-4-yl)imidazo[1,2-a]pyrazin-2-yl)-N2,N2-diethylcyclopropane-1,2-dicarboxamide] | < 100
16 | CN(C)c1c(F)c(C(F)(F)F)c(-c2cn3cc(NC(=O)[C@H]4C[C@H]4F)nc3cn2)c2cn[nH]c12 [Example 27, (1R,2R)-N-(6-(7-(dimethylamino)-6-fluoro-5-(trifluoromethyl)-1H-indazol-4-yl)imidazo[1,2-a]pyrazin-2-yl)-2-fluorocyclopropane-1-carboxamide] | < 100
17 | CC(C)Nc1c(F)c(C(F)F)c(-c2cn3cc(NC(=O)[C@@H]4C[C@@H]4F)nc3cn2)c2cn[nH]c12 [Example 28, (1S,2S)-N-(6-(5-(difluoromethyl)-6-fluoro-7-(isopropylamino)-1H-indazol-4-yl)imidazo[1,2-a]pyrazin-2-yl)-2-fluorocyclopropane-1-carboxamide] | < 100
18 | CCNC(=O)[C@H]1C[C@H]1C(=O)Nc1cn2cc(-c3c(Cl)c(F)c(NC(C)C)c4[nH]ncc34)ncc2n1 [Example 29, (1R,2S)-N1-(6-(5-chloro-6-fluoro-7-(isopropylamino)-1H-indazol-4-yl)imidazo[1,2-a]pyrazin-2-yl)-N2-ethylcyclopropane-1,2-dicarboxamide] | < 100
19 | CN(C)c1c(F)c(C(F)(F)F)c(-c2cn3cc(NC(=O)[C@@H]4C[C@H]4F)nc3cn2)c2cn[nH]c12 [Example 30, (1S,2R)-N-(6-(7-(dimethylamino)-6-fluoro-5-(trifluoromethyl)-1H-indazol-4-yl)imidazo[1,2-a]pyrazin-2-yl)-2-fluorocyclopropane-1-carboxamide] | < 100
20 | CN(C)c1c(F)c(C(F)(F)F)c(-c2cn3cc(NC(=O)[C@H]4C[C@@H]4F)nc3cn2)c2cn[nH]c12 [Example 31, (1R,2S)-N-(6-(7-(dimethylamino)-6-fluoro-5-(trifluoromethyl)-1H-indazol-4-yl)imidazo[1,2-a]pyrazin-2-yl)-2-fluorocyclopropane-1-carboxamide] | < 100
21 | COC(=O)[C@H]1C[C@H]1C(=O)Nc1cn2cc(-c3c(Cl)c(F)c(NC(C)C)c4[nH]ncc34)ncc2n1 [Example 32, methyl (1S,2R)-2-((6-(5-chloro-6-fluoro-7-(isopropylamino)-1H-indazol-4-yl)imidazo[1,2-a]pyrazin-2-yl)carbamoyl)cyclopropane-1-carboxylate] | < 100
22 | Cc1c(F)c(NC(C)C)c2[nH]ncc2c1-c1cn2cc(NC(=O)[C@H]3C[C@H]3F)nc2cn1 [Example 33] | < 100
23 | Cc1c(F)c(NC(C)C)c2[nH]ncc2c1-c1cn2cc(NC(=O)[C@@H]3C[C@H]3F)nc2cn1 [Example 34, (1S,2R)-2-fluoro-N-(6-(6-fluoro-7-(isopropylamino)-5-methyl-1H-indazol-4-yl)imidazo[1,2-a]pyrazin-2-yl)cyclopropane-1-carboxamide] | < 100
24 | Cc1c(F)c(NC(C)C)c2[nH]ncc2c1-c1cn2cc(NC(=O)[C@H]3C[C@@H]3F)nc2cn1 [Example 35, (1R,2S)-2-fluoro-N-(6-(6-fluoro-7-(isopropylamino)-5-methyl-1H-indazol-4-yl)imidazo[1,2-a]pyrazin-2-yl)cyclopropane-1-carboxamide] | < 100
25 | O=C(Nc1cn2cc(-c3c(C(F)(F)F)c(F)c(C(O)C4CC4)c4[nH]ncc34)ncc2n1)[C@@H]1C[C@@H]1F (stereo partly drawn) [Example 36, (1S,2S)-N-(6-(7-(cyclopropyl(hydroxy)methyl)-6-fluoro-5-(trifluoromethyl)-1H-indazol-4-yl)imidazo[1,2-a]pyrazin-2-yl)-2-fluorocyclopropane-1-carboxamide] | < 100
26 | CC(C)Nc1c(F)c(Cl)c(-c2cn3cc(NC(=O)[C@@H]4C[C@@H]4CCl)nc3cn2)c2cn[nH]c12 [Example 37, (1R,2S)-N-(6-(5-chloro-6-fluoro-7-(isopropylamino)-1H-indazol-4-yl)imidazo[1,2-a]pyrazin-2-yl)-2-(chloromethyl)cyclopropane-1-carboxamide] | < 100
